# Structures can show the parent of a compound that is named as a salt.
# Biological target: T1, human glycine transporter type 1 (Gly-T1) (Homo sapiens, UniProt P48067)
# T1 construct: JAR) cells endogenously expressing human glycine transporter type 1 (Gly-T1); endogenous in cells; host or cells: JAR (human placental choriocarcinoma) cells
# T1 sequence (P48067 1-706): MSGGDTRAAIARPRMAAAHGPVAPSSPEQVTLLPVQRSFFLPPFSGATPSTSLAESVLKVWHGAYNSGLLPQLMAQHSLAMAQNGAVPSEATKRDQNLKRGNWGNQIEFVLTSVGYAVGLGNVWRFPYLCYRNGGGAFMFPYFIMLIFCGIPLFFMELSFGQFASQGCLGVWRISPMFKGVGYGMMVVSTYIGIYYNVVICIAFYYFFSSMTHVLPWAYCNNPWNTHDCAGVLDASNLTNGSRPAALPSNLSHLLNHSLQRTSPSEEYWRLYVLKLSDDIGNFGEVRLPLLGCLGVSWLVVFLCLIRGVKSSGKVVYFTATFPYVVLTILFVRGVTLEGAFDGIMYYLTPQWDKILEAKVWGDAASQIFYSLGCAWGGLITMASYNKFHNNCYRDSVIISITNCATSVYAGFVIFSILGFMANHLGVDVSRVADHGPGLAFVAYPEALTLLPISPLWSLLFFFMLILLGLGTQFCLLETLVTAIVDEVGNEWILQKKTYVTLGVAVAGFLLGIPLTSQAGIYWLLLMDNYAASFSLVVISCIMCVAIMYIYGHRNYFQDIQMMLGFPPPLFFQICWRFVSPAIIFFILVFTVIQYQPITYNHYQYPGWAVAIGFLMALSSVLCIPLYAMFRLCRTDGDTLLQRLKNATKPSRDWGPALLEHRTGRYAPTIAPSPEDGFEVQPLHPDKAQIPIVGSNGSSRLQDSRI
# Assay: Glycine Transporter 1 (GlyT1) uptake assay, [14C] glycine uptake in JAR cells
# Assay type: cell-based
# Conditions: approximate IC50; inhibition of [14C] glycine (5 μM) uptake, JAR cells endogenously expressing human Gly-T1
# Description: This cell-based assay measures the ability of test compounds to inhibit the uptake of glycine by the glycine transporter type 1. Human placental choriocarcinoma (JAR) cells endogenously expressing human glycine transporter type 1 (Gly-T1) were used for this assay. […] Cells were plated at a density of 4×10^4 cells/well and grown at 37° C. in a humidified atmosphere of 5% CO2 for 24 h.
# Culture medium was removed from Cytostar plate and JAR cells were incubated with 30 μl of Uptake buffer (120 mM NaCl, 2 mM KCl, 1 mM CaCl2, 1 mM MgCl2, 10 mM Hepes, 5 mM alanine, pH 7.5) with or without compound for 5 min. […] After incubation at room temperature for the desired time usually 1-2 h, sealed 96-well Cytostar plates were counted on a TopCount (Packard).
# IC50 curves were generated from the raw data collected from the TopCount and fitted with a four-parameter logistic equation using in-house data analysis tool, Activity Base.
row,Compound,IC50 [nM]
1,"O=C(O)CN1CCN([C@H](c2ccccc2)c2cccc(C(F)(F)F)c2)CC1 [Cpd 1, (R)-2-(4-(phenyl(3-(trifluoromethyl)phenyl)methyl)piperazin-1-yl)acetic acid]",79.1
2,"C[C@@H]1CN([C@H](c2ccccc2)c2cccc(C(F)(F)F)c2)CCN1CC(=O)O [Cpd 24, 2-((R)-2-methyl-4-((R)-phenyl(3-(trifluoromethyl)phenyl)methyl)piperazin-1-yl)acetic acid dihydrochloride salt]",3.94
3,"Cc1cccc([C@@H](c2ccccc2)N2CCN(CC(=O)O)[C@H](C)C2)c1 [Cpd 34, 2-((R)-2-methyl-4-((R)-phenyl(m-tolyl)methyl)piperazin-1-yl)acetic acid]",17.8
4,"Cc1ccc(-c2ccc([C@@H](c3ccccc3)N3CCN(CC(=O)O)[C@H](C)C3)cc2)cc1 [Cpd 49, [(R)-2-methyl-4-[(R)-(4′-methyl-biphenyl-4-yl)-phenyl-methyl]-piperazin-1-yl]-acetic acid]",7.2
5,"C[C@@H]1CN(C(c2cccc(C(F)(F)F)c2)C2CC2)CCN1CC(=O)O (stereo partly drawn) [Cpd 77, 2-((R)-4-(cyclopropyl(3-(trifluoromethyl)phenyl)methyl)-2-methylpiperazin-1-yl)acetic acid dihydrochloride salt]",41.1
6,"C[C@@H]1CN(C(c2ccc(Cl)cc2)c2ccc(Cl)cc2)CCN1CC(=O)O [Cpd 78, (R)-2-(4-(bis(4-chlorophenyl)methyl)-2-methylpiperazin-1-yl)acetic acid]",4.8
7,"C[C@@H]1CN(C(c2ccc(Cl)cc2)c2ccc(Cl)cc2)CCN1[C@H](C)C(=O)O [Cpd 82, (R)-2-((R)-4-(bis(4-chlorophenyl)methyl)-2-methylpiperazin-1-yl)propanoic acid]",2200

# Stronger by IC50, values ahead:
row,IC50 [nM],Compound
1,1.51,"C[C@@H]1CN([C@H](c2ccccc2)c2cccc(Br)c2)CCN1CC(=O)O [Cpd 20, 2-((R)-4-((R)-(3-bromophenyl)(phenyl)methyl)-2-methylpiperazin-1-yl)acetic acid dihydrochloride salt]"
2,0.934,"C[C@@H]1CN([C@H](c2ccccc2)c2cccc(-c3ccccc3)c2)CCN1CC(=O)O [Cpd 30, [(R)-4-((R)-biphenyl-3-yl-phenyl-methyl)-2-methyl-piperazin-1-yl]-acetic acid]"
3,2.14,"Cc1cccc(-c2ccc([C@@H](c3ccccc3)N3CCN(CC(=O)O)[C@H](C)C3)cc2)c1 [Cpd 48, [(R)-2-methyl-4-[(R)-(3′-methyl-biphenyl-4-yl)-phenyl-methyl]-piperazin-1-yl]-acetic acid]"
4,1.5,"C[C@@H]1CN([C@H](c2ccccc2)c2ccc(C#Cc3ccccc3)cc2)CCN1CC(=O)O [Cpd 55A, 2-((R)-2-methyl-4-((R)-phenyl(4-(2-phenylethynyl)phenyl)methyl)piperazin-1-yl)acetic acid]"

# Source: patent US9663476B2, “Glycine transporter-1 inhibitors” (AMGEN INC., priority 2006, dated 2017)
